Measurements published in patent publication US10934286B2, “Heterocyclic sulfones as ROR gamma modulators” (BRISTOL-MYERS SQUIBB COMPANY, priority 2016, dated 2021).
Counter-ions that a name gives are not always drawn.

Target: T1, RORγ receptor (Homo sapiens, UniProt P51449)
T1 construct: Jurkat pEx/Gal/hRORγ CLBD/HYG pG51uc/blast; expressed in transfected cells
T1 sequence (P51449 269-508 limits assumed): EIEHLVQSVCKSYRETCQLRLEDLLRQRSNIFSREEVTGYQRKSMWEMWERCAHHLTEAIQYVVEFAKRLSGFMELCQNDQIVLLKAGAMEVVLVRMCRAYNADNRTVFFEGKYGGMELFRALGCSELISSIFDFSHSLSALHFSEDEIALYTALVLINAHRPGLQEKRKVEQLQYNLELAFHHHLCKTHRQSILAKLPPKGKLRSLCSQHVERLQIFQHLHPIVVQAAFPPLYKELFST
Assay: General RORγ Gal4 reporter assay (inverse agonist activity, inhibition of luminescence)
Format: cell-based
Settings: Gal4-luciferase reporter in Jurkat cells stably over-expressing hRORγ LBD; overnight incubation; 40 μM to 0.67 nM
Description: General RORγ Gal4 Reporter Assay Inverse agonist activity of potential ligands to RORγ was measured by inhibition of luminescence in a Gal4-luciferase reporter assay in Jurkat cells.
The following day, cells were lysed with 10 μL of Steady-Glo Luciferase Assay System (Promega Cat. No. EZ550), and analyzed immediately. IC50 values were determined.

SMILES | IC50 [nM]
[2H]C([2H])([2H])N1C(=O)[C@H](F)C[C@H]1C(=O)N1CCC2(S(=O)(=O)c3cccc(F)c3)c3ccc(C(F)(C(F)(F)F)C(F)(F)F)nc3CCC12 (stereo partly shown) [Example 63] | 13
N#CCCN1C(=O)CC[C@H]1C(=O)N1CCC2(S(=O)(=O)c3ccc(F)cc3)c3cnc(OCc4ccccc4)cc3CCC12 (single isomer, unassigned) [Example 38] | 4250
C[C@H]1C[C@H](C(=O)O)CC[C@H]1C(=O)N1CCC2(S(=O)(=O)c3ccc(F)cc3)c3cnc(C(F)(C(F)(F)F)C(F)(F)F)cc3CCC12 (stereo partly shown) [Example 30] | 51
CC(C)(O)CN1C(=O)[C@@H]2C[C@@H]2[C@H]1C(=O)N1CCC2(S(=O)(=O)c3cccc(F)c3)c3cnc(C(F)(C(F)(F)F)C(F)(F)F)cc3CCC12 (stereo partly shown) [Example 52] | 1810
O=C(C1CCS(=O)(=O)CC1)N1CCC2(S(=O)(=O)c3ccccc3)c3ccc(C(F)(C(F)(F)F)C(F)(F)F)nc3CCC12 (stereo not shown) [Example 12] | 9
CC(C)(O)CN1C(=O)[C@@H]2C[C@@H]2[C@H]1C(=O)N1CCC2(S(=O)(=O)c3cccc(F)c3)c3ccc(C(F)(C(F)(F)F)C(F)(F)F)nc3CCC12 (stereo partly shown) [Example 49] | 18
CC(C)(O)CN1C(=O)[C@H](F)C[C@H]1C(=O)N1CCC2(S(=O)(=O)c3ccc(F)cc3)c3cnc(C(F)(C(F)(F)F)C(F)(F)F)cc3CCC12 (stereo partly shown) [Example 47] | 29
O=C(N1CCC2(S(=O)(=O)c3ccccc3)c3ccc(OCc4c(Cl)cccc4Cl)nc3CCC12)C(F)(F)F (single isomer, unassigned) [Example 62] | 2440
C[C@H]1C[C@H](C(=O)O)CC[C@H]1C(=O)N1CCC2(S(=O)(=O)c3ccc(F)cc3)c3ncc(C(F)(C(F)(F)F)C(F)(F)F)cc3CCC12 (single isomer, unassigned) [Example 23, trifluoroacetate] | 318
CC(C)(O)CN1C(=O)CCN1C(=O)N1CCC2(S(=O)(=O)c3cccc(F)c3)c3cnc(C(F)(C(F)(F)F)C(F)(F)F)cc3CCC12 (stereo not shown) [Example 57] | 21
O=C(O)[C@H]1CC[C@H](C(=O)N2CCC3(S(=O)(=O)c4ccc(F)cc4)c4ccc(OCc5c(Cl)cccc5Cl)nc4CCC23)CC1 (stereo partly shown) [Example 40] | 12
O=C(O)[C@H]1CC[C@H](C(=O)N2CCC3(S(=O)(=O)c4ccc(F)cc4)c4ncc(C(F)(C(F)(F)F)C(F)(F)F)cc4CCC23)CC1 (stereo partly shown) [Example 4] | 161
CC(C)(O)CN1C(=O)[C@@H]2C[C@@H]2[C@H]1C(=O)N1CCC2(S(=O)(=O)c3cccc(F)c3)c3cnc(C(F)(C(F)(F)F)C(F)(F)F)cc3CCC12 (single isomer, unassigned) [Example 51] | 22
